Our source for the Activity values is ChEMBL document CHEMBL2073742, “The rat canalicular conjugate export pump (Mrp2) is down-regulated in intrahepatic and obstructive cholestasis” (Gastroenterology, 1997).

The target of the series is ATP-binding cassette sub-family C member 2 (Rattus norvegicus, UniProt Q63120). Kind of series: TP_TRANSPORTER: Western in vivo, liver of SD rat. The format is functional, organism-based, Sprague-Dawley.

Molecules are shown by their SMILES.

Chain of ATP-binding cassette sub-family C member 2 (Q63120 whole entry): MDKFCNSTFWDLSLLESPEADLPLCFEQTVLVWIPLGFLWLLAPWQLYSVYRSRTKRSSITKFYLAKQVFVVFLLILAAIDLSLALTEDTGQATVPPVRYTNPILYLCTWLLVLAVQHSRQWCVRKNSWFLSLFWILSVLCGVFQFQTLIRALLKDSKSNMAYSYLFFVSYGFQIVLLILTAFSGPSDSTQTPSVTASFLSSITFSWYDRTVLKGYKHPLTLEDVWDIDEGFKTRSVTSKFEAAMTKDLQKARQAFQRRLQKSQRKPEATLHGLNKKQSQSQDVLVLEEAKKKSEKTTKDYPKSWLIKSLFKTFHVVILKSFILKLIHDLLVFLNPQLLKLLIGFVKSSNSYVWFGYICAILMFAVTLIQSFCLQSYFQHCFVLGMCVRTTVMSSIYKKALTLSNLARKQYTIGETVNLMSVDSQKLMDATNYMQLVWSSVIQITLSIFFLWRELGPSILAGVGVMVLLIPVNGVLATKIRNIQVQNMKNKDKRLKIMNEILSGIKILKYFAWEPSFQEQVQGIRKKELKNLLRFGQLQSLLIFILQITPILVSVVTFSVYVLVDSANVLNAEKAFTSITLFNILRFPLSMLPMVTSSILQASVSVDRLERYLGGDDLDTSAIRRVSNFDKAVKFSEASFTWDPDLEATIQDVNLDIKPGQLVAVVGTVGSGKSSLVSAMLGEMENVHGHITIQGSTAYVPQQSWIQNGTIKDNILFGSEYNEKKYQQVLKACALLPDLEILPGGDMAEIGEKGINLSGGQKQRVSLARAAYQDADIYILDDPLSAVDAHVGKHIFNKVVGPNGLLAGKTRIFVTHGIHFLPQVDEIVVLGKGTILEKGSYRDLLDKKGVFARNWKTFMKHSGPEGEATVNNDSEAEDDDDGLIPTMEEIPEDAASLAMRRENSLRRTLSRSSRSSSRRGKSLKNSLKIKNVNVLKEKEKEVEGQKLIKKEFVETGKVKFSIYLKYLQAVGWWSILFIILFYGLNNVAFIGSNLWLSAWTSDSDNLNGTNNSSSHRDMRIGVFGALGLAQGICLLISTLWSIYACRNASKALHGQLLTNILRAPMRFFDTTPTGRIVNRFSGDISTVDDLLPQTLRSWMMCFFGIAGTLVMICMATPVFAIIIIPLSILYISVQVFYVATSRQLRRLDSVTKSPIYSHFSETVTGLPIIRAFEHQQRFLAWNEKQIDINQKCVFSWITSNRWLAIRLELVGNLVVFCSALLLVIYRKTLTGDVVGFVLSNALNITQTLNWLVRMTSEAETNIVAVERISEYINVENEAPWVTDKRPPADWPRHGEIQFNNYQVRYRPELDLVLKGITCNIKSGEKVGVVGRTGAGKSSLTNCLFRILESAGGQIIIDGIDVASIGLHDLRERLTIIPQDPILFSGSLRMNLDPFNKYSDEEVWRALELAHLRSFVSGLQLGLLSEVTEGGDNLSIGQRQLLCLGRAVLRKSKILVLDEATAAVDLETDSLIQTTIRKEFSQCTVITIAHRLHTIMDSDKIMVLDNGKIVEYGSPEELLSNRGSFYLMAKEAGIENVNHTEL

Consider `C#C[C@]1(O)CC[C@H]2[C@@H]3CCc4cc(O)ccc4[C@H]3CC[C@@]21C` [ETHINYL ESTRADIOL], for which the Activity result was “inducer [Decrease]”.
